In patent US9969744B2, “Compounds for use in cognition improvement” (FUNDACIÓN PARA LA INVESTIGACIÓN MÉDICA APLICADA, priority 2014, dated 2018):

Tests used:
PDE9A = target: T1, PDE9A (Homo sapiens, UniProt O76083); experiment: PDE enzyme activity assay (HTRF cGMP), PDE9A; type: biochemical; details: recombinant enzyme; read-out: PDE9A inhibition (IC50)
T1 construct: they are full-length with N-terminal GST tag; GST (N); purchased BPS Biosciences 60090; host or cells: baculovirus infected Sf9 cells

[1] = tested on: acetylated histone 3 at Lys9 (AcH3K9); experiment: HDAC activity using SHSY-5Y cell line (Western blot, histone 3 acetylation); type: cell-based, human; design: key: basal x1 means no increment (+); basal x1.4≤(++)<basal x2; basal x2≤(+++)<basal x3; basal x3≤(++++); N.E. means No Effect; details: SHSY-5Y cells, 24 hours, compound concentration 1 μM
Method: HDAC inhibition leads to the corresponding functional response, increase in AcH3 level. Therefore, the cellular assay to conclude HDAC activity was assessed by Western blot analysis using specific antibodies against acetylated histone 3 at Lys9 (AcH3K9). Cell cultures were treated at 100 nM, 500 nM, 1 μM and/or 5 μM with compounds of the invention or known PDE inhibitors during 24 hours and, Table 1 (below) describes the functional activity: histone 3 acetylation level (AcH3) vs basal (no treatment).
A human neuroblastoma cell line (SHSY-5Y) was used. Cell line was obtained from ATCC (CRL-2266) and cultured in 35 mm plates (Becton Dickinson, NJ).
The cells were grown to 90% confluence at 37° C. in an atmosphere of 5% CO2 and in Dulbecco's modified Eagle's medium supplemented with Glutamax (Gibco, Invitrogen, CA), 100 units/ml penicillin/streptomycin, 1×MEM nonessential amino acids and 10% fetal bovine serum (Gibco, Invitrogen, CA).
Cells were collected and sonicated in a buffer containing a cold lysis buffer with protease inhibitors (0.2 M NaCl, 0.1 M HEPES (4-(2-hydroxyethyl)-1-piperazineethanesulfonic acid), 10% glycerol, 200 mM NaF, 2 mM Na4P2O7, 5 mM EDTA (ethylenediaminetetraacetic acid), 1 mM EGTA (ethylene glycol tetraacetic acid), 2 mM DTT (dithiothreitol), 0.5 mM PMSF (phenylmethylsulfonyl fluoride), 1 mM Na3VO4 and Complete Protease Inhibitor Cocktail, Roche Diagnostics), centrifuged at 14,000×g 4° C. for 20 min and the supernatant was aliquoted and stored at −80° C. Total protein concentrations were determined using the BioRad Bradford protein assay (BioRad Laboratories).
Protein samples were mixed with Laemmli sample buffer, resolved onto Sodium Dodecyl Sulfate (SDS)-polyacrylamide gels and transferred to nitrocellulose membrane. The membranes were blocked with 5% milk, 0.05% Tween-20 in PBS (Phosphate-Buffered Saline) or TBS (Tris-Buffered Saline) followed by overnight incubation with the following primary antibodies: rabbit polyclonal anti-acetylated Histone 3 (acetyl K9) (Cell Signalling Technology), rabbit polyclonal anti-total Histone 3 (Millipore), in the corresponding buffer. All the antibodies were used at 1:1000 dilution except the mouse monoclonal anti-β-actin which was used at 1:50.000. Following two washes in TBS/Tween20 and one wash in TBS alone, immunolabeled protein bands were detected by using HRP-conjugated anti-rabbit or anti-mouse antibody (Santa Cruz Biotechnology; dilution 1:5.000) following an enhanced chemiluminescence system (ECL, GE Healthcare Bioscience, Buckinghamshire, UK), and autoradiographic exposure to HyperfilmtECL (GE Healthcare Bioscience). Quantity One™ software v.4.6.3 (Bio-Rad) was used for quantification.

PDE5A1 = target: T2, PDE5A1 (Homo sapiens, UniProt O76074); experiment: PDE enzyme activity assay (HTRF cGMP), PDE5A; type: biochemical; details: recombinant enzyme; read-out: PDE5A1 inhibition (IC50)
T2 construct: they are full-length with N-terminal GST tag; GST (N); purchased BPS Biosciences 60050; host or cells: baculovirus infected Sf9 cells

[2] = tested on: phosphorylated tau (p-Tau); experiment: AD-related markers in Tg2576 neurons: pTau; type: cell-based, mouse; details: Mus musculus, Primary neuron, references, read-out: pTau EC50 (50% decrease in pTau levels over basal)
Method: The effects of the compounds on amyloid pathology were analysed in primary cultures after 21 days in-vitro (DIV) of neurons derived from the hippocampus and cortex of Tg2576 mouse embryos. Tg2576 mice express the human 695-aa isoform of APP (hAPP) containing the Swedish double mutation, which favours A3 production. Neurons were treated for two days and collected at day 3, 24 h after the last treatment. First it was analysed the effect of the compounds on hAPP processing by the amyloidogenic pathway by measuring the carboxyl terminal fragment AβPP (C99), which is the precursor of Aβ42. […]
It was next analyzed the effect of the compounds on levels of phosphorylated tau (p-Tau) in the same samples, another marker of AD, using a phospho-specific antibody (AT8) that recognizes hyperphosphorylated epitopes on Ser202/Thr205. […]
To analyze APP-derived fragments and p-Tau levels in primary neuronal cultures, cells were collected in a buffer containing SDS (2%), Tris-HCl (10 mM, pH 7.4), protease inhibitors (1 mM phenylmethylsulfonyl fluoride (PMSF) and Complete Protease Inhibitor Cocktail: Roche Diagnostics) and phosphatase inhibitors (0.1 mM Na3VO4 and 1 mM NaF). […] Aliquots of the supernatant were frozen at […] and their protein concentrations determined by the Bradford method using the Bio-Rad protein assay (Bio-Rad, Hercules, Calif., USA). […]

pCREB = experiment: In-vivo pCREB in hippocampus of wild type mice; design: key: basal x1 means no increment (+); basal x1.4≤(++)<basal x2; basal x2≤(+++)<basal x3; basal x3≤(++++); N.E. means No Effect
Method: (§1) Another group of animals received the vehicle (1/1/8, v:v:v, DMSO/Tween 20/saline). One hour later, mice were sacrificed by cervical dislocation and their hippocampus was quickly dissected from the brains. Total tissue homogenates were obtained by homogenizing the hippocampus in a cold lysis buffer with protease inhibitors (0.2 M NaCl, 0.1 M HEPES, 10% glycerol, 200 mM NaF, 2 mM Na4P2O7, 5 mM EDTA, 1 mM EGTA, 2 mM DTT, 0.5 mM PMSF, 1 mM Na3VO4 and Complete Protease Inhibitor Cocktail, Roche Diagnostics). The homogenate was then centrifuged at 14,000×g at 4° C. for 20 min and the supernatant aliquoted and stored at −80° C. Total protein concentrations were determined using the BioRad Bradford protein assay (BioRad Laboratories). Protein samples were analyzed as described in the “in vitro” section.

AcH3 = experiment: In-vivo AcH3 in hippocampus of wild type mice; design: key: basal x1 means no increment (+); basal x1.4≤(++)<basal x2; basal x2≤(+++)<basal x3; basal x3≤(++++); N.E. means No Effect
Method: as §1

pTau = experiment: AD-related markers in Tg2576 mice: pTau; type: in vivo; details: hippocampal homogenates, footnote: single dose of 1 mg/Kg i.p.

T1 sequence (O76083 1-533 isoform O76083-2): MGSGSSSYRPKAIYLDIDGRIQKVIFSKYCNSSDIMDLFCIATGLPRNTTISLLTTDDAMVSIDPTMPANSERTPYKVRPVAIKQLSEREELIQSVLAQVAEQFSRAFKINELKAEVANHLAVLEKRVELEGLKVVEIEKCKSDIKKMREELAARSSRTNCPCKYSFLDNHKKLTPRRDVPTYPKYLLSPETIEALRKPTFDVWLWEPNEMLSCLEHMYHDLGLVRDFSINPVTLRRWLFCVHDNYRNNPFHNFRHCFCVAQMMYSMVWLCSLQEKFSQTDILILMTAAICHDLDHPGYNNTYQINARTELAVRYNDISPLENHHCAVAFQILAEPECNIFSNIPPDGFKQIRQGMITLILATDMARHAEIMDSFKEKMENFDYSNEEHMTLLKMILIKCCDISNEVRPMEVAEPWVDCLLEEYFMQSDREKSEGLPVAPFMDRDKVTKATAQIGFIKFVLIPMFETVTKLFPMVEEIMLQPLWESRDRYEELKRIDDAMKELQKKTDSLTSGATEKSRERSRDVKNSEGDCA

| SMILES | IC50 (PDE9A) | AcH3: increment in Histone 3 acetylation level vs basal [1] | IC50 (PDE5A1) | other results |
| --- | --- | --- | --- | --- |
| C[C@@H]1CN(Cc2ccc(C(=O)Nc3ccccc3N)cc2)C[C@H]1c1nc2c(cnn2C2CCCC2)c(=O)[nH]1 (racemic) [Example 3-01, N-(2-aminophenyl)-4-[[(3S,4S)-3-(1-cyclopentyl-4-oxo-5H-pyrazolo[3,4-d]pyrimidin-6-yl)-4-methyl-pyrrolidin-1-yl]methyl] benzamide] | 0.01 to 1 µM | ++ (basal x1.4≤(++)<basal x2) | – | – |
| CCCc1nn(C)c2c(=O)[nH]c(-c3cc(Cc4ccc(C(=O)Nc5cc(-c6cccs6)ccc5N)cc4)ccc3OCC)nc12 [Example 1-13, N-[2-amino-5-(2-thienyl)phenyl]-4-[[4-ethoxy-3-(1-methyl-7-oxo-3-propyl-6H-pyrazolo[4,3-d]pyrimidin-5-yl)phenyl]methyl]benzamide] | – | ++ (basal x1.4≤(++)<basal x2) | 1 to 10 µM | – |
| CCCc1nn(C)c2c(=O)[nH]c(-c3cc(CC(=O)Nc4ccccn4)ccc3OCC)nc12 [Example 1-15, 2-[4-ethoxy-3-(1-methyl-7-oxo-3-propyl-6H-pyrazolo[4,3-d]pyrimidin-5-yl)phenyl]-N-(2-pyridyl)acetamide] | – | ++ (basal x1.4≤(++)<basal x2) | 0.01 to 1 µM | – |
| CCCc1nn(C)c2c(=O)[nH]c(-c3cc(Cc4ccc(C(=O)N5CCNC(=O)C5)cc4)ccc3OCC)nc12 [Example 1-19] | – | ++ (basal x1.4≤(++)<basal x2) | 0.01 to 1 µM | – |
| CCCc1nn(C)c2c(=O)[nH]c(-c3cc(Cc4ccc(C(=O)Nc5cscc5N)cc4)ccc3OCC)nc12 [Example 1-20] | – | ++ (basal x1.4≤(++)<basal x2) | 1 to 10 µM | – |
| CCCc1nc(C)c2c(=O)[nH]c(-c3cc(S(=O)(=O)N4CCN(c5ncc(C(=O)Nc6ccccc6N)cn5)CC4)ccc3OCC)nn12 [Example 2-02, N-(2-aminophenyl)-2-[4-[4-ethoxy-3-(5-methyl-4-oxo-7-propyl-3H-imidazo[5,1-f][1,2,4]triazin-2-yl)phenyl]sulfonylpiperazin-1-yl]pyrimidine-5-carboxamide] | – | ++++ (basal x3≤(++++)) | < 0.01 µM | – |
| CCCc1nc(C)c2c(=O)[nH]c(-c3cc(S(=O)(=O)NC4CCN(c5ncc(C(=O)Nc6ccccc6N)cn5)CC4)ccc3OCC)nn12 [Example 2-03] | – | ++ (basal x1.4≤(++)<basal x2) | < 0.01 µM | – |
| CCCc1nc(C)c2c(=O)[nH]c(-c3cc(Cc4ccc(C(=O)Nc5cscc5N)cc4)ccc3OCC)nn12 [Example 2-07, N-(4-amino-3-thienyl)-4-[[4-ethoxy-3-(5-methyl-4-oxo-7-propyl-3H-imidazo[5,1-f][1,2,4]triazin-2-yl)phenyl]methyl]benzamide] | – | ++ (basal x1.4≤(++)<basal x2) | 0.01 to 1 µM | – |
| CN1CC(=O)N2[C@H](c3ccc4c(c3)OCO4)c3[nH]c4ccccc4c3C[C@@H]2C1=O [Tadalafil] | > 10 µM | N.E. | – | EC50 [2]: 0.01 to 1 µM; pCREB increment vs basal (pCREB; single dose of 1 mg/Kg i.p.): +++ (basal x2≤(+++)<basal x3); AcH3 increment vs basal (AcH3; single dose of 1 mg/Kg i.p.): N.E.; pTau biological response vs basal (pTau): +++ (basal x2≤(+++)<basal x3) |
| O=C(CCCCCCC(=O)Nc1ccccc1)NO [Vorinostat] | > 10 µM | ++++ (basal x3≤(++++)) | > 10 µM | pCREB increment vs basal (pCREB; single dose of 12.5 mg/Kg i.p.): N.E.; AcH3 increment vs basal (AcH3; single dose of 12.5 mg/Kg i.p.): +++ (basal x2≤(+++)<basal x3) |
